104 compounds from PubChem BioAssay AID1996 can be followed below.

SMILES strings stand for the structures. Values after ≈ are worked out from the molar mass of the structure shown. Bounds are passed on as bounds.

The conditions of the data set: buffer; pH 7.4; 200.0 µM.
For the compound `CCN(C(=O)COC(=O)CCNS(=O)(=O)c1ccccc1F)c1c(N)n(Cc2ccccc2)c(=O)[nH]c1=O`, the kinetic solubility – broadly, solubility judged after dilution from a stock solution rather than from solid – is greater than 82.1 µg/mL.

The compound `CN(Cc1ccccn1)Cc1nc(COc2ccccc2)no1` returned a solubility (kinetic) of 45.7 µg/mL (≈ 147 µM). Consider `NC(=O)C1c2ccccc2Oc2ccccc21`, for which the kinetic solubility was 24.8 µg/mL (≈ 110 µM).

In the case of `Cc1ccccc1NC(=O)Nc1ccc2c(c1)CCC2`, the kinetic solubility came to 0.5 µg/mL (≈ 1.88 µM). Regarding `Cc1cc(=O)[nH]c(SCC(=O)N2CCCCC2)n1`, the solubility (kinetic) is greater than 40.1 µg/mL. As for `O=Cc1c(C(=O)O)n(Cc2ccccc2Cl)c2ccccc12`, the solubility (kinetic) was greater than 47.1 µg/mL. For `CC12CC(O)C3c4ccc(O)cc4CCC3C1CC/C2=N\O` (centres undefined) the value was greater than 45.2 µg/mL.

For the compound `Cc1ccc(C)c(NC(=O)CCOc2ccccc2)c1`, the solubility (kinetic) was found to be 3.7 µg/mL (≈ 13.7 µM). Take `CCCCN(C(=O)c1c(-c2ccccc2)noc1C)c1c(N)n(CCC)c(=O)[nH]c1=O`: the kinetic solubility is greater than 63.8 µg/mL. Consider `CN(C)c1ccc(C(=O)NCCCSc2ccccc2)cc1`, for which the solubility (kinetic) was found to be 3.9 µg/mL (≈ 12.4 µM).

Turning to `CN(CC(=O)Nc1ccc(Cl)cc1F)C1=NS(=O)(=O)c2ccccc21`, the kinetic solubility turned out to be 7.8 µg/mL (≈ 20.4 µM).

For the compound `CCOC(=O)N1CCN(C(=O)COC(=O)c2ccc(Cl)nc2)CC1`, the kinetic solubility is greater than 53.4 µg/mL. Compound `CC1CN(S(=O)(=O)c2ccc(C(=O)O)cc2)CC(C)O1` (centres undefined) showed a kinetic solubility greater than 44.9 µg/mL. `O=C(CNC(=O)c1ccco1)Nc1ccc(F)cc1` returned a kinetic solubility of 37 µg/mL (≈ 141 µM). Take `O=C(N/N=C/c1ccccn1)c1cccnc1`: the kinetic solubility is greater than 33.9 µg/mL.

For `O=S(=O)(NCCc1csc(-c2ccccc2)n1)c1cccnc1`, the solubility (kinetic) is greater than 51.8 µg/mL. On to `Cc1ccc(NC(=O)c2ccc(Cl)c(S(=O)(=O)NCc3ccco3)c2)c(O)c1`, for which the kinetic solubility was 7.3 µg/mL (≈ 17.3 µM). With `CSC1=NCCN1C(=O)c1ccc2ccccc2c1`, the solubility (kinetic) turned out to be 1.9 µg/mL (≈ 7.03 µM). On to `Cc1cccc(NC(=O)Cn2c(=O)oc3ccccc32)c1C`, for which the solubility (kinetic) is 6.6 µg/mL (≈ 22.3 µM). As for `Cc1c(-c2ccncc2)oc2ccc(Br)cc2c1=O`, the solubility (kinetic) was less than 0.7 µg/mL. Compound `O=C(Nc1ccc(Cl)cn1)C1COc2ccccc2O1` (centres undefined) registered a solubility (kinetic) of 2 µg/mL (≈ 6.88 µM).

In turn, `CC(C)(C)C(=O)Nc1ccc(S(=O)(=O)Nc2nccs2)cc1` returned a kinetic solubility greater than 50.9 µg/mL. Consider `O=C(CNS(=O)(=O)c1cccs1)NCc1ccc(F)cc1`, for which the solubility (kinetic) is greater than 49.3 µg/mL. Regarding `Cc1cc(NC(=O)C(C)Oc2ccccc2)no1` (centres undefined), the kinetic solubility was greater than 36.9 µg/mL. Compound `COc1ccc(C=O)cc1Cn1ccnc1.Cl` came in with a kinetic solubility greater than 37.9 µg/mL. For `Cc1cc2ncc(-c3cccs3)nc2cc1C`, the solubility (kinetic) is less than 0.3 µg/mL. `Cc1c(C(=O)Cc2ccccc2)n(C)c2ccccc12` yielded a solubility (kinetic) of 2.5 µg/mL (≈ 9.49 µM). In turn, `CCOCCCn1c(SCC(=O)N2CCOCC2)nc2ccccc2c1=O` returned a solubility (kinetic) greater than 58.7 µg/mL.

`C=CCN1C(=O)CSC1=Nc1ccc(NC(C)=O)cc1` gave a solubility (kinetic) of 42 µg/mL (≈ 145 µM). For the compound `O=C(Nc1ccc2ncccc2c1)c1cccc(Br)c1`, the solubility (kinetic) was determined as 2.5 µg/mL (≈ 7.64 µM).

Take `CCN(CC)S(=O)(=O)c1ccc(N2CCOCC2)c(NC(=O)c2ccc(=O)[nH]c2)c1`: the kinetic solubility is greater than 65.2 µg/mL.

For `CCN(CC)CCCNc1oc(/C=C/c2ccccc2)nc1C#N`, the kinetic solubility was greater than 48.7 µg/mL. In turn, `COCCNC(=O)C(=O)c1c(-c2ccccc2)[nH]c2ccccc12` yielded a solubility (kinetic) greater than 48.4 µg/mL. Regarding `CC(=O)N(Cc1ccccc1)c1nc(-c2ccccc2)cs1`, the solubility (kinetic) was less than 0.3 µg/mL. For `CCS(=O)(=O)N1CCC(C(=O)Nc2cccc(F)c2)CC1` the value was greater than 47.2 µg/mL; for `CC(OC(=O)CC1CC2CCC1C2)C(=O)Nc1ccc(C(N)=O)cc1` (centres undefined), greater than 51.7 µg/mL; for `COc1ccc(C(=O)O)cc1S(=O)(=O)NCCN(C)C`, 44.1 µg/mL (≈ 146 µM). As for `Nc1nc(SCC(=O)N2CCCC2)[nH]c(=O)c1NC(=O)c1cccs1`, the solubility (kinetic) is greater than 56.9 µg/mL. For `c1ccc(CC2CCCCN2)cc1` (centres undefined) the value was 7.7 µg/mL (≈ 43.9 µM); for `CNC(=O)COc1ccc(Cl)c2cccnc12`, greater than 37.6 µg/mL.

`C[N+]1(C)C2CCC1CC(OC(=O)c1ccccc1)C2.[Br-]` (centres undefined) displayed a solubility (kinetic) greater than 51 µg/mL. `CCOC(=O)c1sc(=NC(=O)C2CC2)n(C)c1C` yielded a kinetic solubility greater than 40.2 µg/mL.

With `COc1ccc(NC(=O)C2CCCN(c3nccc(C)n3)C2)cc1` (centres undefined), the kinetic solubility was 3.8 µg/mL (≈ 11.6 µM).

In turn, `Cc1ccc(-c2csc3ncnc(SCC(=O)O)c23)cc1` came in with a solubility (kinetic) greater than 47.5 µg/mL.

In the case of `COc1ccc(-c2noc(CNC(=O)c3ccoc3C)n2)cc1`, the solubility (kinetic) was determined as 37.8 µg/mL (≈ 121 µM).

Turning to `COc1cc(S(=O)(=O)NCc2ccc3c(c2)OCO3)ccc1F`, the solubility (kinetic) was determined as 14.8 µg/mL (≈ 43.6 µM). This solubility kinetic lies about 2.6-fold lower than the previous one. With `O=C(COc1ncnc2cc(Cl)ccc12)c1ccc2c(c1)OCCO2`, the solubility (kinetic) was less than 0.4 µg/mL. For `O=C(O)C(=O)O.OC1(c2ccccc2)CCNC2CCCCC21` (centres undefined) the value was greater than 48.2 µg/mL; for `COc1cccc(OCC(=O)O/N=C(\N)c2ccncc2)c1`, 39.9 µg/mL (≈ 132 µM).

As to `Cc1cc(C(=O)N/N=C2\CCCC(=O)C2)c(C)o1`, the kinetic solubility is greater than 37.2 µg/mL.

The compound `Cc1cc(C(=O)COC(=O)C2CC2)c(C)n1-c1ccc(F)cc1` showed a kinetic solubility of 12.9 µg/mL (≈ 40.9 µM). Regarding `Cn1ncc(Cl)c1C(=O)Nc1ccc(CN2CCCCC2)cc1`, the solubility (kinetic) is greater than 49.9 µg/mL. In the case of `COC(=O)c1sc(NC(=O)c2ccncc2)nc1C`, the kinetic solubility amounted to 27.3 µg/mL (≈ 98.4 µM). In the case of `COc1ccc(CNC(=O)C(Cc2ccccc2)n2cccc2)cc1` (centres undefined), the kinetic solubility stood at 7.8 µg/mL (≈ 23.3 µM). `CCN(CC)C(=O)c1ccc(NC(=O)c2c(C)noc2C)cc1` had a kinetic solubility greater than 47.3 µg/mL.

In turn, `Cc1nc2ccccn2c1C(=O)NN=C1CCCC1` registered a solubility (kinetic) greater than 38.4 µg/mL.

On to `C=CCn1c(P(C)(=O)[O-])nc2ccccc21.[K+]`, for which the solubility (kinetic) is greater than 41.1 µg/mL.

The compound `O=C(c1cccs1)N1CCN=C1SCc1cccc(F)c1` showed a kinetic solubility of less than 0.3 µg/mL. Compound `Cc1ccc(S(=O)(=O)NCc2ccccc2)s1` came in with a kinetic solubility greater than 40.1 µg/mL.

The compound `CCCc1cc(=O)[nH]c(SCC(=O)NC2CC2)n1` had a kinetic solubility greater than 40.1 µg/mL. Consider `CCOC(=O)C1=C(C)NC(C)=C(C(=O)OCC)C1C(=O)OCC(=O)N1CCC(C)CC1`, for which the kinetic solubility was 15.9 µg/mL (≈ 36.4 µM). For `CC(C)(C)C(=O)CSc1nc(N)cc(=O)[nH]1` the value was 33.1 µg/mL (≈ 137 µM). The value for `COc1ccc2cc(C(=O)N(C)Cc3ccccc3)[nH]c2c1` was less than 0.3 µg/mL. The value for `CN1CCN(c2ccccc2NC(=O)c2ccccc2F)CC1` was greater than 47 µg/mL.

For the compound `CN(C)CC(O)CN(c1ccccc1)c1ccccc1` (centres undefined), the solubility (kinetic) is greater than 40.6 µg/mL. For `CC(C)(C)N=Cc1c(O)ccc2oc3c(c12)CCCC3` the value was 6.5 µg/mL (≈ 24 µM); for `COc1cc2ccccc2cc1C(=O)NC1CCCCC1`, 25.3 µg/mL (≈ 89.3 µM); for `CC(=O)c1ccc(NC(=S)NC(=O)Cc2ccc(Cl)cc2)cc1`, 0.4 µg/mL (≈ 1.15 µM). The compound `Oc1ccc(C=NCCc2ccccc2)cc1` gave a solubility (kinetic) greater than 33.8 µg/mL. The compound `CC(C)N1CCN(CCCc2ccccc2)CC1CCO` (centres undefined) displayed a kinetic solubility greater than 43.6 µg/mL. The value for `Cc1ccc(NS(=O)(=O)c2c(C)[nH]c(=O)[nH]c2=O)cc1F` was greater than 47 µg/mL; that for `CCOc1ccc(CNc2nc3ccccc3n2C)cc1` was greater than 42.2 µg/mL.

Consider `COc1ccc(OCC(=O)Nc2ccc3c(c2)n(C)c(=O)n3C)cc1`, for which the solubility (kinetic) stood at 48.2 µg/mL (≈ 141 µM). Turning to `COC(=O)c1cc(C(=O)Nc2ccc(Cl)cn2)cc([N+](=O)[O-])c1`, the kinetic solubility stood at 2.5 µg/mL (≈ 7.45 µM). The value for `CN(C)C(C(=O)Nc1cc(Cl)cc(Cl)c1)c1ccccc1` (centres undefined) was 19.2 µg/mL (≈ 59.4 µM). For `CN1CCN(C(=O)c2cc3sc4ccccc4c3s2)CC1` the value was greater than 47.5 µg/mL; for `CC(C)NC(=O)[C@@H]1CSC2c3ccccc3C(=O)N21` (some centres undefined), greater than 41.5 µg/mL; for `CC(C)NC(=O)CN1CCN(C(=O)CCl)CC1.Cl`, greater than 44.7 µg/mL. Regarding `O=C(NCCc1ccccc1)C(=S)N1CCCCC1`, the solubility (kinetic) is greater than 41.5 µg/mL.

On to `COc1cc(Br)ccc1NC(=O)c1ccccc1-c1ccccc1C(=O)O`, for which the kinetic solubility was 53.3 µg/mL (≈ 125 µM).

Turning to `CC(OC(=O)c1c[nH]c2ccccc12)C(=O)N1CCCC1` (centres undefined), the kinetic solubility was greater than 42.9 µg/mL. The compound `Cc1ccc(-c2cc(C(=O)N3CCC4(CC3)OCCO4)no2)cc1` came in with a solubility (kinetic) of 44 µg/mL (≈ 134 µM). Compound `CN1CCN(CC(=O)Nc2nc3ccccc3s2)CC1.O=CO` displayed a kinetic solubility of 50.4 µg/mL. Consider `COc1ccccc1C(=O)OCC(=O)Nc1ccc(Cl)cn1`, for which the kinetic solubility was 5.1 µg/mL (≈ 15.9 µM). This solubility kinetic is about 9.9-fold lower than that of the compound before. On to `CN(C)c1ccc(C(=O)NC2(N3CCC3=O)CCCC2)cc1`, for which the solubility (kinetic) was greater than 45.2 µg/mL.

As for `CCc1noc(C)c1C(=O)NCCc1ccccc1`, the kinetic solubility was greater than 38.7 µg/mL. In the case of `O=C(c1c[nH]c2ccccc2c1=O)N1CCCCCC1`, the solubility (kinetic) was greater than 40.5 µg/mL. The compound `O=C(NCCN1CCOCC1)c1cccc(Br)c1` showed a solubility (kinetic) of 46.4 µg/mL (≈ 148 µM).

With `N#CC1(NC(=O)CN2C(=O)NC(Cc3c[nH]c4ccccc34)C2=O)CCCCC1` (centres undefined), the solubility (kinetic) is greater than 59 µg/mL.

As to `COc1ccc(C)cc1NC(=O)CN1CCCC1c1ccc2c(c1)OCCCO2` (centres undefined), the kinetic solubility is 13.6 µg/mL (≈ 34.3 µM).

Turning to `CC1CCN(CCNC(=S)Nc2ccc(Cl)cc2)CC1`, the solubility (kinetic) is greater than 46.8 µg/mL. The compound `COc1ccc(CCN2C(=S)N(c3ccccc3)C(=O)C2CC(=O)O)cc1OC` (centres undefined) had a solubility (kinetic) greater than 62.2 µg/mL.

Regarding `CC(CCN1CCN(c2ccccn2)CC1)c1ccccc1` (centres undefined), the kinetic solubility turned out to be 31 µg/mL (≈ 105 µM). For `CC(NC(=O)c1ccncc1)c1ccccc1` (centres undefined) the value was 26.5 µg/mL (≈ 117 µM). Compound `O=S(=O)(NCCc1ccncc1)c1ccc(F)cc1` returned a kinetic solubility greater than 42 µg/mL. Compound `COC(=O)c1ccccc1NC(=O)c1ccc(F)cc1` showed a solubility (kinetic) of less than 0.6 µg/mL. As for `O=C(CN1CCC(NC(=O)Nc2ccccc2)CC1)Nc1ccccc1F`, the kinetic solubility stood at 17.5 µg/mL (≈ 47.2 µM). `O=S(=O)(Cc1ccccc1Cl)NCc1ccccc1` gave a solubility (kinetic) of 32.1 µg/mL (≈ 109 µM).

The compound `O=C(NCCc1ccc(F)cc1)N[C@@H](Cc1ccccc1)C(=O)O` gave a solubility (kinetic) greater than 49.6 µg/mL. In turn, `CN=C(C)/C(C(=O)OC)=C(/O)c1ccccc1F` gave a kinetic solubility of 32.3 µg/mL (≈ 129 µM). The value for `Cc1cc(C)c(C(=O)N(C)C2CCCN(Cc3ccccc3F)C2)o1` (centres undefined) was greater than 51.7 µg/mL; that for `CC1(C)NC(=O)N(Cc2cc(=O)n3ccsc3n2)C1=O` was greater than 43.8 µg/mL. `O=[N+]([O-])c1ccc(CSc2nc3ncc(Br)cc3[nH]2)cc1` returned a solubility (kinetic) of 1.3 µg/mL (≈ 3.56 µM).

In turn, `CC(=O)Nc1ccc(SCC(=O)NC(=O)c2ccc(S(=O)(=O)N(C)C)cc2)cc1` gave a kinetic solubility greater than 65.3 µg/mL.
